Results taken from ChEMBL document CHEMBL1124041, “Conformational and steric aspects of the inhibition of phenylethanolamine N-methyltransferase by benzylamines” (J Med Chem, 1988).

How the values were obtained:
[1] = target: T1, Phenylethanolamine N-methyltransferase (Bos taurus) (UniProt P10938); experiment: Molar pI50 value for phenylethanolamine N-methyl-transferase (PNMT) inhibition
T1 sequence (whole entry): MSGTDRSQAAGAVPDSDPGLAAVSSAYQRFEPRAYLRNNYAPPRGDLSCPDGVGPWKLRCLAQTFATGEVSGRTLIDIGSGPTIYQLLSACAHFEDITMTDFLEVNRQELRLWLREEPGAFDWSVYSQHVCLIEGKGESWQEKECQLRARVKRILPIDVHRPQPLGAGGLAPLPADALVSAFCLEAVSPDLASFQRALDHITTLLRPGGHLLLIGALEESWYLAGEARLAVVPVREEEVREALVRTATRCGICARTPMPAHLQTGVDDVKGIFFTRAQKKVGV

[2] = target: T1, Phenylethanolamine N-methyltransferase (Bos taurus); experiment: Acid dissociation constant of phenylethanolamine N-methyl-transferase (PNMT) inhibition
[3] = target: T2, Phenylethanolamine N-methyltransferase (Bos taurus, UniProt P10938); experiment: Inhibition of phenylethanolamine N-methyl-transferase (PNMT)
T2 sequence (P10938 whole entry): T1 sequence (whole entry)

| pI50 [1] [M] | pKa [2] | Compound | Ki [3] [µM] |
| --- | --- | --- | --- |
| – | – | NC1CC2C[C@@H]1c1ccccc12 (some centres not stated) | 479 |
| – | – | CC1Cc2ccccc2CN1 (configuration not stated) | 3 |
| 3.16 | 9.54 | Cc1ccc(CN)cc1 | – |
| – | – | c1ccc2c(c1)CC1CC[C@H]2N1 | 153 |
| – | – | c1ccc2c(c1)C1CC[C@H]2NC1 | > 2000 |
| 2.78 | 9.51 | COc1ccc(CN)cc1 | – |
| – | – | N[C@@H]1CC2CCC1c1ccccc12 (some centres not stated) | > 1000 |
| – | 9.38 | NCc1ccccc1 | – |
| 4.07 | 9.14 | NCc1ccc(Cl)cc1 | – |
| – | 7.35 | NCc1cccc(Cl)c1Cl | – |
| 3.17 | 9.3 | NCc1ccc(F)cc1 | – |
| – | – | c1cc2c3c(c1)CC[C@@H]3CCC2 | 52 |
| 3.82 | 9.45 | Cc1cccc(CN)c1 | – |
| – | – | c1ccc2c(c1)C1CC[C@H]2N1 | > 2000 |

| Compound | pI50 [1] [M] | pKa [2] | Ki [3] [µM] |
| --- | --- | --- | --- |
| NCc1cccc(F)c1 | 4 | 9.04 | – |
| NCc1ccc(Br)cc1 | 4.37 | 9.13 | – |
| NCc1cccc(Cl)c1 | 5.07 | 9.01 | – |
| NCc1cccc(Br)c1 | 5.17 | 8.98 | – |
